This is an account of results in patent publication US20250130239A1, “PROTEIN DEGRADER” (University of Dundee, priority 2021, published 2025).

Test [1] deals with untagged Brd2 and endogenous Brd3 and Brd4. The test can be described thus: Off-target degradation of endogenous BET proteins (western blot) in BromoTag-Brd2 HEK293 cells. As to conditions: 1 nM to 10 μM; 6 h. In kind it is cell-based, human. The protocol:
(§1) Dose-response Degradation Assays. All dose-response degradation assays were performed on the genotype verified heterozygous BromoTag-Brd2 HEK293 cell line. Heterozygous BromoTag-Brd2 HEK293 cells were plated at a density of 5×10^5 cells per well of a six healthy plate a day before initiation of the titration experiment. PROTAC compounds were dissolved in DMSO at a concentration of 10 mM, from these stock concentrations, PROTAC compounds were diluted to appropriate concentrations using DMSO in the range of 10 μM-1 nM. The compounds were then added to a 2 mL of DMEM (Invitrogen, Carlsebad, CA, USA) supplemented with 10% (v/v) Fetal bovine serum (FBS) (Thermo Fisher, Waltham, MA, USA) and 1% (v/v) penicillin/streptomycin (pen/strep) (#15140122, Thermo Fisher, Waltham, MA, USA) and added to the cells at initiation of the experiment. Control compounds such as MZ1, cis-MZ1 were similarly dissolved in DMSO to the appropriate concentration. All titration experiment were performed for a total of 6 hours prior to being harvested and were kept at 37° C., 5% CO2, and 95% humidity once treatment was applied until right before harvesting. Cells were washed twice with PBS before being harvested.
(§2) Western Blotting. […] Total protein quantity was determined using the BCA protein assay (#23225, Pierce, Rockford, Illinois). Protein concentration was determined using the BCA assay (ThermoFisher Scientific, 23225). […] All western blots were analysed for band intensities using Image Lab from Bio-Rad (LI-COR, Biosciences). The data extracted from these blots were then plotted and analysed using Prism (v. 8.2.0, GraphPad).
Development of a Knock-in Cell Line with BromoTag fused to endogenous Brd2 using CRISPR. […] To this end, the endogenous BET family protein Brd2 was chosen as a model target, due to the availability of well-established antibody for Brd2 detection, and expression of a single protein isoform as well detected band in the western blot (Filippakopoulos, P.; Knapp, S., Nat Rev Drug Discov. 2014, 13 (5), 337-356). […]
On the technique in general: A western blot detects proteins with antibodies after separation by electrophoresis.

In the next test the target is T1, Brd3 (Homo sapiens, UniProt Q15059).
T1 construct: endogenous Brd3 and Brd4; endogenous in cells; host or cells: heterozygous BromoTag-Brd2 HEK293 cells
Briefly: Off-target degradation of Brd3 (western blot) in BromoTag-Brd2 HEK293 cells. Type of test: cell-based. The method, then: as §1, with “All titration experiment were performed for a total of 6 hours prior to being harvested and were kept at 37° C., 5% CO2, and 95% humidity once treatment was applied until right before harvesting. Cells were washed twice with PBS before being harvested.” left out
as §2

The target in test [2] is T2, BromoTag-Brd2 (Homo sapiens, UniProt O60885+P40337, L387A).
T2 construct: comprising residues 368-440 of human Brd4; Brd2 (endogenous protein, fusion partner in the same polypeptide); eGFP-P2A (upstream marker in the knock-in cassette) (N, cleaved yes); expressed in transfected cells; host or cells: HEK293, heterozygous CRISPR knock-in at the endogenous BRD2 locus
Briefly: Dose-response degradation assay (western blot, 6 h) in heterozygous BromoTag-Brd2 HEK293 cells. In kind it is cell-based. As to conditions: 6 h; for pDC50: 8-point 10 μM-1 nM, mean (±S.E.) of two repeats. The protocol: Dose-response Degradation Assays. All dose-response degradation assays were performed on the genotype verified heterozygous BromoTag-Brd2 HEK293 cell line. Heterozygous BromoTag-Brd2 HEK293 cells were plated at a density of 5×10^5 cells per well of a six healthy plate a day before initiation of the titration experiment. PROTAC compounds were dissolved in DMSO at a concentration of 10 mM, from these stock concentrations, PROTAC compounds were diluted to appropriate concentrations using DMSO in the range of 10 μM-1 nM. […] Control compounds such as MZ1, cis-MZ1 were similarly dissolved in DMSO to the appropriate concentration. […] Cells were washed twice with PBS before being harvested.
Western Blotting. […] The membranes were blocked for 1 h prior to incubation with the primary antibodies using 5% Milk TBST. […] Following overnight incubation with the primary antibodies at 4° C., the membranes were incubated with secondary antibodies (Anti-rabbit, Abcam AB216773, 1:5000 or anti-mouse, Abcam AB216774, 1:5000) and hFAB™ Rhodamine Anti-Tubulin Antibody (Biorad, 12004165, 1:10000) for one h and then imaged with a Bio-Rad imager (LI-COR Biosciences). All western blots were analysed for band intensities using Image Lab from Bio-Rad (LI-COR, Biosciences). The data extracted from these blots were then plotted and analysed using Prism (v. 8.2.0, GraphPad).

Test [3] concerns the target T2, BromoTag-Brd2. The test can be described thus: Time-course degradation assay in heterozygous BromoTag-Brd2 HEK293 cells. Type of test: cell-based. As to conditions: 500 nM 47, 1 μM 48; over 36 h. The method, then:
Time-course Degradation Assay. Time-course degradation assays using PROTACs AGB1, AGB2, and AGB3 were performed on the genotype verified heterozygous BromoTag-Brd2 HEK293 cell line. Heterozygous BromoTag-Brd2 HEK293 cells were plated at a density of 5×10^5 cells per well of a 6 healthy plate a day prior to initiation of the Timecourse assay. PROTAC's AGB1 & AGB2 were diluted in DMSO to a concentration of 1 mM prior to being further diluted 1:2000 in 2 mL of DMEM to a concentration of 500 nM per timepoint. PROTAC AGB3 was diluted in DMSO to a concentration of 2 mM prior to being further diluted 1:2000 in 2 mL of DMEM to a concentration of 1 μM per timepoint. Timepoint range was between 0-36 h. Treatment was applied in a staggered fashion to enable all timepoints to be harvested at the same time.
Western Blotting. All cells were harvested on ice with RIPA lysis, and extraction buffer (ThermoFisher Scientific, 89901) supplemented with protease inhibitor cocktail (Merck, 11697498001) and Benzonase® Nuclease (Sigma, E1014) before being store at −20° C. prior to use. Total protein quantity was determined using the BCA protein assay (#23225, Pierce, Rockford, Illinois). Protein concentration was determined using the BCA assay (ThermoFisher Scientific, 23225). Samples were then prepared and loaded onto NuPAGE™ 4-12% Bis-Tris Midi gels (ThermoFisher Scientific, WG1403A), followed by the transfer of the proteins onto nitrocellulose membranes (EMD Millipore). The membranes were blocked for 1 h prior to incubation with the primary antibodies using 5% Milk TBST. Membranes were probed for Brd2 (Abcam, Ab139690, 1:1000), Brd3 (Abcam, Ab50818, 1:4000), Brd4 (Abcam, Ab128874, 1:1000) or our polyclonal Brd4^BD2 L387A antibody. […] All western blots were analysed for band intensities using Image Lab from Bio-Rad (LI-COR, Biosciences). The data extracted from these blots were then plotted and analysed using Prism (v. 8.2.0, GraphPad).

A further test concerns the target T3, VHL (VCB protein) (Homo sapiens, UniProt P40337).
T3 construct: N-terminally Hiss-tagged VHL (54-213); His6 (N, cleaved yes); made in house; host or cells: E. coli
Briefly: Fluorescence polarization competitive binding assay, binary binding. As to conditions: compound alone; displacement of HIF-1a peptide probe; read-out: binary affinity to VHL Kd. The protocol: (§3) Protein Expression and Purification. […] The complex was further purified by anion exchange followed by gel filtration chromatography.
(§4) Fluorescence Polarization Binding Assay. […] All components were dissolved from stock solutions using 100 mM Bis-Tris propane, 100 mM NaCl, 1 mM DTT, pH 7.0, to yield a final assay volume of 15 μL. DMSO was added as appropriate to ensure a final concentration of 2% v/v. […] Percentage displacement values were obtained by normalization of controls were plotted against Log[Compound]. IC50 values were determined for each titration using nonlinear regression analysis with Prism (v. 9.1.0, GraphPad). […] Cooperativity values (a) for each PROTAC were calculated using the ratio: α=binary Kd (−bromodomain)/ternary Kd (+bromodomain).
On the technique in general: Polarisation of emitted light reports the rotation of a fluorescent probe.

Test [4] concerns the target T4, VHL, compound preincubated with Brd4^BD2 L387A (Homo sapiens, UniProt O60885+P40337, L387A).
T4 construct: N-terminally Hiss-tagged VHL (54-213); N-terminally His6-tagged Brd4-BD2^L387A (333-460) was expressed in E. coli; His6 (N, cleaved yes); made in house; host or cells: E. coli
Briefly: Fluorescence polarization competitive binding assay, ternary complex binding. Conditions: displacement of HIF-1a peptide probe, read-out: ternary binding affinity Kd. The method, then:
as §3, §4

Take `CC[C@@H](C(=O)OCCOCCCOCC(=O)N[C@H](C(=O)N1C[C@H](O)C[C@H]1C(=O)N[C@@H](C)c1ccc(-c2scnc2C)cc1)C(C)(C)C)[C@@H]1N=C(c2ccc(Cl)cc2)c2c(sc(C)c2C)-n2c(C)nnc21` (relative stereo) [ET-OARV-771 (25), 2-(3-(2-(((S)-1-((2S,4R)-4-hydroxy-2-(((S)-1-(4-(4-methylthiazol-5-yl)phenyl)ethyl)carbamoyl)pyrrolidin-1-yl)-3,3-dimethyl-1-oxobutan-2-yl)amino)-2-oxoethoxy)propoxy)ethyl (R*)-2-((S*)-4-(4-chlorophenyl)-2,3,9-trimethyl-6H-thieno[3,2-f][1,2,4]triazolo[4,3-a][1,4]diazepin-6-yl)butanoate]: in test [1], the “off-target degradation of untagged Brd2 or the other endogenous BET proteins” value is listed as “no observable off-target degradation”. In addition, the “off-target degradation of Brd3” value at Brd3 (at 1 μM, 6 h) is listed as “minor off-target degradation”.

With `CC[C@@H](C(=O)NCCOCCOCCOCC(=O)N[C@H](C(=O)N1C[C@H](O)C[C@H]1C(=O)NCc1ccc(-c2scnc2C)cc1)C(C)(C)C)[C@@H]1N=C(c2ccc(Cl)cc2)c2c(sc(C)c2C)-n2c(C)nnc21` (single isomer, unassigned) [AGB3 (48)], the DC50 (in general, the midpoint of the concentration-degradation curve) on BromoTag-Brd2 [2] (range over the two antibodies) lay within 210 to 290 nM. Besides, the pDC50 is reported as 6.5 ± 0.3 on BromoTag-Brd2 [2] (Ab: Brd4^BD2 L387A, single stereoisomers) and 6.7 ± 0.1 on BromoTag-Brd2 [2] (Ab: BromoTag-Brd2, single stereoisomers). In addition, the Dmax – broadly, the largest share of the target that was removed – on BromoTag-Brd2 [2] (HEK293, Ab: Brd4^BD2 L387A, single stereoisomers) came to 92%. On BromoTag-Brd2 [3], the “extent of BromoTag-Brd2 degradation in the time course” value was about 80%. In addition, the figures for the Kd (at VHL (VCB protein); in test [4]) were 102 nM and 9 nM, respectively.

Regarding `CC[C@@H](C(=O)OCCOCCCOCC(=O)N[C@H](C(=O)N1C[C@H](O)C[C@H]1C(=O)N[C@@H](C)c1ccc(-c2scnc2C)cc1)C(C)(C)C)[C@@H]1N=C(c2ccc(Cl)cc2)c2c(sc(C)c2C)-n2c(C)nnc21` (single isomer, unassigned) [AGB2 (47)], the “off-target degradation of Brd3” value on Brd3 (at 100-1,000 nM) was “minor off-target degradation”. For the same molecule, the “extent of BromoTag-Brd2 degradation in the time course” value on BromoTag-Brd2 [3] is reported as “near complete target degradation”. In addition, the Kd (as a rule, the constant that tells how readily two partners part at equilibrium) amounted to 45 nM on VHL (VCB protein) and 12 nM in test [4].
